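Method: 48-hour compound exposure of cells in 96-well plates, five concentrations, linear interpolation of endpoints. TGI denotes the concentration required for complete inhibition of growth.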 Some results are limits rather than exact numbers.

In the first test the test system is 786-0 renal. Briefly: NCI anticancer screen, dose series, 48 h.
For the molecule `C/C(=N/NC(=S)Nc1ccc([N+](=O)[O-])cc1)c1cccc(/C(C)=N\NC(=S)Nc2ccc([N+](=O)[O-])cc2)n1`, the TGI was 11.6 µM.

`CCOC(=O)C1=[N+]([O-])OC2=C(O)CCCC21` (stereo not given) came in with a TGI of more than 100 µM.

For `CCCCCCCCCCC(C(=O)O)C1(C(=O)O)CCC(=O)O1` (stereo not given), the TGI was more than 100 µM.

As to `CC(=O)N1C(=O)/C(=C\C(=O)c2ccc([N+](=O)[O-])cc2)c2ccccc21`, the TGI was 29.1 µM.

Another test concerns A498 renal. Briefly: NCI anticancer screen, dose series, 48 h.
`C/C(=N/NC(=S)Nc1ccc([N+](=O)[O-])cc1)c1cccc(/C(C)=N\NC(=S)Nc2ccc([N+](=O)[O-])cc2)n1` had a TGI of 9.74 µM.

In the case of `CCOC(=O)C1=[N+]([O-])OC2=C(O)CCCC21` (stereo not given), the TGI was more than 100 µM.

Molecule `CC(=O)N1C(=O)/C(=C\C(=O)c2ccc([N+](=O)[O-])cc2)c2ccccc21` returned a TGI of more than 100 µM.

The next test deals with A549 NSCLC. Briefly: NCI anticancer screen, dose series, 48 h.
For `C/C(=N/NC(=S)Nc1ccc([N+](=O)[O-])cc1)c1cccc(/C(C)=N\NC(=S)Nc2ccc([N+](=O)[O-])cc2)n1`, the TGI came out at 11.4 µM.

With `CCOC(=O)C1=[N+]([O-])OC2=C(O)CCCC21` (stereo not given), the TGI was more than 100 µM.

With `CCCCCCCCCCC(C(=O)O)C1(C(=O)O)CCC(=O)O1` (stereo not given), the TGI is more than 100 µM.

As to `CC(=O)N1C(=O)/C(=C\C(=O)c2ccc([N+](=O)[O-])cc2)c2ccccc21`, the TGI was more than 100 µM.

A further test deals with ACHN renal. Description: NCI anticancer screen, dose series, 48 h.
`C/C(=N/NC(=S)Nc1ccc([N+](=O)[O-])cc1)c1cccc(/C(C)=N\NC(=S)Nc2ccc([N+](=O)[O-])cc2)n1` returned a TGI of 1.14 µM.

On to `CCOC(=O)C1=[N+]([O-])OC2=C(O)CCCC21` (stereo not given), for which the TGI is more than 100 µM.

For the molecule `CCCCCCCCCCC(C(=O)O)C1(C(=O)O)CCC(=O)O1` (stereo not given), the TGI is more than 100 µM.

Regarding `CC(=O)N1C(=O)/C(=C\C(=O)c2ccc([N+](=O)[O-])cc2)c2ccccc21`, the TGI came out at 29.6 µM.

The test system of another test is BT-549 breast. Description: NCI anticancer screen, dose series, 48 h.
For the molecule `C/C(=N/NC(=S)Nc1ccc([N+](=O)[O-])cc1)c1cccc(/C(C)=N\NC(=S)Nc2ccc([N+](=O)[O-])cc2)n1`, the TGI is 2.36 µM.

With `CCOC(=O)C1=[N+]([O-])OC2=C(O)CCCC21` (stereo not given), the TGI was more than 100 µM.

`CCCCCCCCCCC(C(=O)O)C1(C(=O)O)CCC(=O)O1` (stereo not given) registered a TGI of more than 100 µM.

As to `CC(=O)N1C(=O)/C(=C\C(=O)c2ccc([N+](=O)[O-])cc2)c2ccccc21`, the TGI was determined as 42.1 µM.

A further test deals with CAKI-1 renal. Briefly: NCI anticancer screen, dose series, 48 h.
For the molecule `C/C(=N/NC(=S)Nc1ccc([N+](=O)[O-])cc1)c1cccc(/C(C)=N\NC(=S)Nc2ccc([N+](=O)[O-])cc2)n1`, the TGI is 8.06 µM.

On to `CCOC(=O)C1=[N+]([O-])OC2=C(O)CCCC21` (stereo not given), for which the TGI was more than 100 µM.

`CCCCCCCCCCC(C(=O)O)C1(C(=O)O)CCC(=O)O1` (stereo not given) displayed a TGI of more than 100 µM.

`CC(=O)N1C(=O)/C(=C\C(=O)c2ccc([N+](=O)[O-])cc2)c2ccccc21`: the TGI was determined as 41.2 µM.

The next test deals with CCRF-CEM leukemia. Briefly: NCI anticancer screen, dose series, 48 h.
`C/C(=N/NC(=S)Nc1ccc([N+](=O)[O-])cc1)c1cccc(/C(C)=N\NC(=S)Nc2ccc([N+](=O)[O-])cc2)n1` came in with a TGI of more than 55.8 µM.

In the case of `CCOC(=O)C1=[N+]([O-])OC2=C(O)CCCC21` (stereo not given), the TGI is more than 100 µM.

Take `CCCCCCCCCCC(C(=O)O)C1(C(=O)O)CCC(=O)O1` (stereo not given): the TGI is more than 100 µM.

For `CC(=O)N1C(=O)/C(=C\C(=O)c2ccc([N+](=O)[O-])cc2)c2ccccc21`, the TGI was 16.9 µM.

Another test concerns COLO 205 colon. Briefly: NCI anticancer screen, dose series, 48 h.
Take `C/C(=N/NC(=S)Nc1ccc([N+](=O)[O-])cc1)c1cccc(/C(C)=N\NC(=S)Nc2ccc([N+](=O)[O-])cc2)n1`: the TGI was determined as 15.7 µM.

Regarding `CCOC(=O)C1=[N+]([O-])OC2=C(O)CCCC21` (stereo not given), the TGI was more than 100 µM.

With `CCCCCCCCCCC(C(=O)O)C1(C(=O)O)CCC(=O)O1` (stereo not given), the TGI is more than 100 µM.

The molecule `CC(=O)N1C(=O)/C(=C\C(=O)c2ccc([N+](=O)[O-])cc2)c2ccccc21` yielded a TGI of 41.1 µM.

For the next test, the system named is DU-145 prostate. Description: NCI anticancer screen, dose series, 48 h.
For `C/C(=N/NC(=S)Nc1ccc([N+](=O)[O-])cc1)c1cccc(/C(C)=N\NC(=S)Nc2ccc([N+](=O)[O-])cc2)n1`, the TGI is more than 37.7 µM.

`CCOC(=O)C1=[N+]([O-])OC2=C(O)CCCC21` (stereo not given) displayed a TGI of more than 100 µM.

As to `CCCCCCCCCCC(C(=O)O)C1(C(=O)O)CCC(=O)O1` (stereo not given), the TGI is more than 100 µM.

For the molecule `CC(=O)N1C(=O)/C(=C\C(=O)c2ccc([N+](=O)[O-])cc2)c2ccccc21`, the TGI was more than 100 µM.

The next test has as its system EKVX NSCLC. Briefly: NCI anticancer screen, dose series, 48 h.
The molecule `C/C(=N/NC(=S)Nc1ccc([N+](=O)[O-])cc1)c1cccc(/C(C)=N\NC(=S)Nc2ccc([N+](=O)[O-])cc2)n1` displayed a TGI of 12.8 µM.

Consider `CCOC(=O)C1=[N+]([O-])OC2=C(O)CCCC21` (stereo not given), for which the TGI is more than 100 µM.

Take `CCCCCCCCCCC(C(=O)O)C1(C(=O)O)CCC(=O)O1` (stereo not given): the TGI was more than 100 µM.

The molecule `CC(=O)N1C(=O)/C(=C\C(=O)c2ccc([N+](=O)[O-])cc2)c2ccccc21` gave a TGI of 51.6 µM.

In the next test the test system is HCC-2998 colon. Description: NCI anticancer screen, dose series, 48 h.
As for `C/C(=N/NC(=S)Nc1ccc([N+](=O)[O-])cc1)c1cccc(/C(C)=N\NC(=S)Nc2ccc([N+](=O)[O-])cc2)n1`, the TGI came to 21.5 µM.

The molecule `CCOC(=O)C1=[N+]([O-])OC2=C(O)CCCC21` (stereo not given) showed a TGI of more than 100 µM.

`CCCCCCCCCCC(C(=O)O)C1(C(=O)O)CCC(=O)O1` (stereo not given) came in with a TGI of more than 100 µM.

On to `CC(=O)N1C(=O)/C(=C\C(=O)c2ccc([N+](=O)[O-])cc2)c2ccccc21`, for which the TGI is 36.7 µM.

A further test concerns HCT-116 colon. Briefly: NCI anticancer screen, dose series, 48 h.
In turn, `C/C(=N/NC(=S)Nc1ccc([N+](=O)[O-])cc1)c1cccc(/C(C)=N\NC(=S)Nc2ccc([N+](=O)[O-])cc2)n1` displayed a TGI of 12.2 µM.

Molecule `CCOC(=O)C1=[N+]([O-])OC2=C(O)CCCC21` (stereo not given) came in with a TGI of more than 100 µM.

In the case of `CCCCCCCCCCC(C(=O)O)C1(C(=O)O)CCC(=O)O1` (stereo not given), the TGI is more than 100 µM.

For `CC(=O)N1C(=O)/C(=C\C(=O)c2ccc([N+](=O)[O-])cc2)c2ccccc21`, the TGI turned out to be 37.8 µM.

Another test deals with HCT-15 colon. Description: NCI anticancer screen, dose series, 48 h.
In turn, `C/C(=N/NC(=S)Nc1ccc([N+](=O)[O-])cc1)c1cccc(/C(C)=N\NC(=S)Nc2ccc([N+](=O)[O-])cc2)n1` had a TGI of 2.67 µM.

`CCOC(=O)C1=[N+]([O-])OC2=C(O)CCCC21` (stereo not given) gave a TGI of more than 100 µM.

Take `CCCCCCCCCCC(C(=O)O)C1(C(=O)O)CCC(=O)O1` (stereo not given): the TGI is more than 100 µM.

Take `CC(=O)N1C(=O)/C(=C\C(=O)c2ccc([N+](=O)[O-])cc2)c2ccccc21`: the TGI is 32.1 µM.

Another test concerns HL-60(TB) leukemia. Briefly: NCI anticancer screen, dose series, 48 h.
The molecule `CCCCCCCCCCC(C(=O)O)C1(C(=O)O)CCC(=O)O1` (stereo not given) yielded a TGI of more than 100 µM.

Another test relates to HOP-62 NSCLC. Briefly: NCI anticancer screen, dose series, 48 h.
In turn, `C/C(=N/NC(=S)Nc1ccc([N+](=O)[O-])cc1)c1cccc(/C(C)=N\NC(=S)Nc2ccc([N+](=O)[O-])cc2)n1` had a TGI of 11.1 µM.

For the molecule `CCOC(=O)C1=[N+]([O-])OC2=C(O)CCCC21` (stereo not given), the TGI was more than 100 µM.

In the case of `CCCCCCCCCCC(C(=O)O)C1(C(=O)O)CCC(=O)O1` (stereo not given), the TGI is more than 100 µM.

For the origin of these results see PubChem BioAssay (NCI).
